Entries after “also recorded” stand apart in the source; their conditions may differ. One block for each compound: values may come before it.
Columns and labels:
[1] = tested on: DLKP cells; assay: Example 5 miniaturised in vitro cell toxicity assay, DLKP; type: cell-based, human
Description: For the monolayer cell lines miniaturised in vitro assays were used to determine drug toxicity. On Day I cells were seeded at 1×10^3 cells/well in a 96-well plate and left to attach overnight. Drug was added on Day 2, and the assay was terminated on Day 7. Cell number was then evaluated by using one of two colorimetric end-point […]: the acid phosphatase assay (Martin, A., and Clynes, M. (1991); In vitro Cell and Development Biology, 27A: 183-184) or the crystal violet dye elution assay (Martin, A., and Clynes, M. (1993); Cytotechnology, 11:49-58). All assays were performed in triplicate.

[2] = tested on: GST prepared from DLKP cells; assay: total GST assay with 1-chloro-2,4-dinitrobenzene; type: biochemical, human
Description: The other NSAIDs were tested in a total GST assay (Habig, W. H., and Jakoby, W. B., (1981); Methods Enzymol., 77: 218-231). Total cellular GST activity was assayed, using 1-chloro-2,4-dinitrobenzene as a substrate, according to the method of Habig, W. H., and Jakoby, W. B., (1981); supra. Due to spectrophotometric interference at 340 nm, caused by the majority of the NSAIDs, the assays were all performed at 360 nm, without any apparent effect on the rate of the control reaction The results are shown in Table 5.

[3] = tested on: A549 cell line; assay: miniaturised in vitro colorimetric cell survival assay (acid phosphatase end-point), A549; type: cell-based, human; conditions: alone or + Adriamycin 40 ng/ml
Description: All the results presented in this Example for the DLKP, A549 and OAW42-SR cell lines were derived using the same miniaturised in vitro calorimetric assay system. On Day 1 of the assay 1000 cells/well/100 μl were plated into 96-well plates. Cells were allowed to attach overnight and cell viability was visually assessed. […] NSAID plus chemotherapeutic drug) to be analysed were added onto the cells. The individual drugs were added separately in 50 μl quantities (4× stocks, to take into account the dilution effect of having 200 μl final volume in each well). The drugs were left on the cells for five further days (Day 7) and cell number was determined using the acid phosphatase end-point assay which uses p-nitrophenol phosphate as substrate (Martin, A. and Clynes, M. (1991) In Vitro Dev. Biol., 27A, 183-184). On Day 7 the culture medium was removed from the cells and they were washed once with phosphate buffered saline (PBS). […] After the incubation period 50 μl of 1N NaOH was added to each well to develop the colour. The plates were then read at 405 nm (reference 620 nm) on an ELISA plate-reader. […] All results are the cell survival means ±S.D. from a minimum of three experiments.

[4] = tested on: murine and human cultured tumour cells; conditions: non-toxic concentrations of indomethacin; in vitro; cited from earlier work
[5] = target: T1, MRP pump (Homo sapiens, UniProt P33527); assay: ATP-dependent transport of [3H]LTC4 into inside-out plasma membrane vesicles from HL60ADR cells; type: biochemical; conditions: for MRP-pump inhibitory activity: conclusion from Table 4
T1 construct: inside-out plasma membrane vesicles prepared from HL60ADR cells; endogenous in cells; host or cells: HL60ADR cells (plasma membrane vesicles)
Description: To determine if the NSAIDs were acting directly on the MRP pump the uptake of [^3H]LTC4 into inside-out plasma membrane vesicles prepared from HL60ADR cells was examined using a rapid filtration procedure (Ishikawa,T., et al. (1994); J. Biol. Chem. 269 (46); 29085-29093). ATP-dependent transport of [^3H]LTC4 into the membrane vesicles was measured by a rapid filtration method using a Millipore sampling manifold. The membrane vesicles were thawed at 37° C. before use and kept on ice. The reaction components consisted of 0.25 M sucrose/10 mM Tris.HCl pH 7.4/1 mM ATP/10 mM MgCl2/10 mM creatine phosphate/ 110 μg/ml creatine kinase and 10 nM [^3H]LTC4, with 50 μg of the inside-out vesicle preparation, in a final volume of 110 μl. This suspension was incubated at 37° C., with gentle mixing, and aliquots, 20 μl, were taken at the indicated points. Those aliquots were diluted in 1 ml of ice-cold incubation buffer before being applied to 0.22 μm Millipore GSWP nitrocellulose filters, pre-soaked in ice-cold incubation buffer, under suction. The filters were subsequently washed with 3 ml ice-cold incubation buffer, and absorbed radioactivity was measured using a scintillation counter (Beckman). In control experiments ATP was replaced with 5μ-AMP to determine the ATP-dependent transport.

[6] = tested on: MRP-specific substrates; assay: screen for enhancement of toxicity of MRP substrates by NSAIDs; type: cell-based; conditions: summary statements
[7] = read-out: % inhibition of transport of [3H]LTC4

T1 sequence (P33527 whole entry): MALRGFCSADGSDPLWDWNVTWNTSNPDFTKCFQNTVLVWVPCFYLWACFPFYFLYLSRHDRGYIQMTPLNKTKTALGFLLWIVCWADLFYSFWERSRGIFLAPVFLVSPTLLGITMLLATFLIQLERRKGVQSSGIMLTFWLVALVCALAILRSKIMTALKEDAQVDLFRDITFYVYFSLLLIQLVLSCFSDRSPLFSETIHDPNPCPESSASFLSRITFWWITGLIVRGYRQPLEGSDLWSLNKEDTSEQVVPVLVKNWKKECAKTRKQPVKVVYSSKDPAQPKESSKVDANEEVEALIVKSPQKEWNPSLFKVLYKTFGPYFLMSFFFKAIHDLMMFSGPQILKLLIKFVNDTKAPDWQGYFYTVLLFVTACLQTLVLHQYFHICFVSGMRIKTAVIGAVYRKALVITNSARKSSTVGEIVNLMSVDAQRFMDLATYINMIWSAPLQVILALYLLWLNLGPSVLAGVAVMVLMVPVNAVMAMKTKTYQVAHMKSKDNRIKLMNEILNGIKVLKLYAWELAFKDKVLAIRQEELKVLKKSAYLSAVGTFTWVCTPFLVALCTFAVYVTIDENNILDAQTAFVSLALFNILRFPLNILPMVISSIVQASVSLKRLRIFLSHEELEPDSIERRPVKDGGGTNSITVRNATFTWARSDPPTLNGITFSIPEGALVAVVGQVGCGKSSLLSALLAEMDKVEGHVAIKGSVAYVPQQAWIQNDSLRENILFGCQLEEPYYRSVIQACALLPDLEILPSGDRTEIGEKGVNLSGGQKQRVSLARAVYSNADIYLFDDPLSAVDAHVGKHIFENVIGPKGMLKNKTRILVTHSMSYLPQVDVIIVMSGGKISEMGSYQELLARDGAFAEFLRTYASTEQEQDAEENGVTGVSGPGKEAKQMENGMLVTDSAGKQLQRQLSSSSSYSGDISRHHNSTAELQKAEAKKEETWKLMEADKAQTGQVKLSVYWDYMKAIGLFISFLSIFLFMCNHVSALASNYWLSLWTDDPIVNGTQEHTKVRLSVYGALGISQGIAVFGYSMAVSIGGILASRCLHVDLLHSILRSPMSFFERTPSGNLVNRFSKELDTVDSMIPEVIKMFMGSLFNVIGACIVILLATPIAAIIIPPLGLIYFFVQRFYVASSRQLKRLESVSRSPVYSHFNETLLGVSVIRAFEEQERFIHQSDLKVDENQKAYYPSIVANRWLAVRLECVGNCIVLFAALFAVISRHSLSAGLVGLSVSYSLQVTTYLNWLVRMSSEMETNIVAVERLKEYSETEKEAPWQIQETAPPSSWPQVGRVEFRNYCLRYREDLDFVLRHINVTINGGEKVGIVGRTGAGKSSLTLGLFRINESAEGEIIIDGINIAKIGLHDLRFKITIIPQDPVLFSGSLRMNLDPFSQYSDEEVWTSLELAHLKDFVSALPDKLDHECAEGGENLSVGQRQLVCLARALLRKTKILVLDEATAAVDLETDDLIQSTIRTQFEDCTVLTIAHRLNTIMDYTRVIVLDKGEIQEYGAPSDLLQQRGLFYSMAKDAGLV

- MRP-pump inhibitory activity [5]: have MRP-pump inhibitory activity
- inhibition at 49 µM [5, 7]: 20%
- inhibition at 98 µM [5, 7]: 70%
SMILES: COc1ccc2c(c1)c(CC(=O)O)c(C)n2C(=O)c1ccc(Cl)cc1 [Indomethacin, indomethacin]
- % cell survival ([1]; Indomethacin 0.6 μg/ml, alone or + Teniposide 6.25 ng/ml): 102.06 ± 5.11%
- % cell survival ([1]; Indomethacin 1.25 μg/ml, alone or + Teniposide 6.25 ng/ml): 101.28 ± 5.12%
- % cell survival ([1]; Indomethacin 2.5 μg/ml, alone or + Teniposide 6.25 ng/ml): 96.18 ± 3.43%
- % Inhibition of GST ([2]; 0.4 mM): 54%
- % cell survival ([3]; ix) Indomethacin 0.60 μg/ml): 92.38 ± 13.30%
- % cell survival ([3]; ix) Indomethacin 1.20 μg/ml): 87.54 ± 13.07%
- % cell survival ([3]; ix) Indomethacin 2.40 μg/ml): 92.18 ± 7.09%
- enhancement of VP-16 sensitivity [4]: enhanced the VP-16 sensitivity of a variety of cancer cell lines
- enhancement of toxicity of MRP substrates [6]: positive; also recorded: have been found to enhance the toxicity of MRP-specific substrates

- inhibition at 45 µM ([5]; 45 μM): 25%
- inhibition at 89 µM ([5]; 89 μM): 69%
- MRP-pump inhibitory activity [5]: have MRP-pump inhibitory activity
SMILES: CC1=C(CC(=O)O)c2cc(F)ccc2/C1=C\c1ccc([S+](C)[O-])cc1 (centres unmarked) [Sulindac, sulindac]
- % cell survival ([1]; Sulindac 1.5 μg/ml, alone or + Epirubicin 1 ng/ml): 99.92 ± 3.3%
- % cell survival ([1]; Sulindac 3.0 μg/ml, alone or + Epirubicin 1 ng/ml): 100.29 ± 3.2%
- % cell survival ([1]; Sulindac 6.0 μg/ml, alone or + Epirubicin 1 ng/ml): 100.07 ± 3.6%
- % Inhibition of GST ([2]; 0.25 mM): 42.6%
- % cell survival ([3]; xi) Sulindac 1.50 μg/ml): 100.00 ± 13.20%
- % cell survival ([3]; xi) Sulindac 3.20 μg/ml): 101.00 ± 12.14%
- % cell survival ([3]; xi) Sulindac 6.30 μg/ml): 96.01 ± 5.36%
- enhancement of toxicity of MRP substrates [6]: have been found to enhance the toxicity of MRP-specific substrates

Reference: patent US6413937B1, “Combinations for use in increasing the potency of a substrate for multidrug resistance related protein” (Dublin City University and Enterprise Ireland, priority 1996, dated 2002)
